Measurements taken from ChEMBL document CHEMBL1208682, “New quinoline derivatives: synthesis and investigation of antibacterial and antituberculosis properties” (2010).
Values after ≈ are worked out from the molar mass of the structure shown.

Each compound was assayed on Mycobacterium tuberculosis (assay: Antituberculosis activity against multi drug-resistant Mycobacterium tuberculosis after 7 days using resazurin dye by broth microdilution assay). Conditions: 168 h.
Type: functional

Row | Compound | MIC [µM]
1 | Oc1cc(F)ccc1/C=N/Nc1cc(C(F)(F)F)nc2c(C(F)(F)F)cccc12 | > 50
2 | Cc1cc(C)cc(NC(=O)NNc2cc(C(F)(F)F)nc3c(C(F)(F)F)cccc23)c1 | 6.25 (≈ 2.76 µg/mL)
3 | Cc1cccc2c(/C=N/Nc3cc(C(F)(F)F)nc4c(C(F)(F)F)cccc34)c[nH]c12 | 12.5 (≈ 5.45 µg/mL)
4 | COCCNC(=S)NNc1cc(C(F)(F)F)nc2c(C(F)(F)F)cccc12 | 25 (≈ 10.3 µg/mL)
5 | CCCCCCC/C=N/Nc1cc(C(F)(F)F)nc2c(C(F)(F)F)cccc12 | 6.25 (≈ 2.53 µg/mL)
6 | N#Cc1cccc(NC(=O)NNc2cc(C(F)(F)F)nc3c(C(F)(F)F)cccc23)c1 | > 50
7 | Fc1ccccc1NC(=S)NNc1cc(C(F)(F)F)nc2c(C(F)(F)F)cccc12 | > 50
8 | Cn1cc(Cl)c(/C=N/Nc2cc(C(F)(F)F)nc3c(C(F)(F)F)cccc23)n1 | 6.25 (≈ 2.64 µg/mL)
9 | FC(F)(F)c1cc(N/N=C/c2cccnc2)c2cccc(C(F)(F)F)c2n1 | > 50
10 | O=C(NNc1cc(C(F)(F)F)nc2c(C(F)(F)F)cccc12)Nc1ccc(F)cc1 | 12.5 (≈ 5.4 µg/mL)
11 | CCCCCNC(=O)NNc1cc(C(F)(F)F)nc2c(C(F)(F)F)cccc12 | > 50
12 | NNC(=O)c1ccncc1 [ISONIAZID] | 12.5 (≈ 1.71 µg/mL)
13 | COc1ccc(/C=N/Nc2cc(C(F)(F)F)nc3c(C(F)(F)F)cccc23)cc1O | 12.5 (≈ 5.37 µg/mL)
14 | FC(F)C(F)(F)Oc1cccc(/C=N/Nc2cc(C(F)(F)F)nc3c(C(F)(F)F)cccc23)c1 | 25 (≈ 12.5 µg/mL)
15 | COc1ccc(/C=N/Nc2cc(C(F)(F)F)nc3c(C(F)(F)F)cccc23)c(F)c1 | 6.25 (≈ 2.7 µg/mL)
16 | Cc1nc[nH]c1/C=N/Nc1cc(C(F)(F)F)nc2c(C(F)(F)F)cccc12 | 6.25 (≈ 2.42 µg/mL)
17 | FC(F)(F)c1cc(N/N=C/C2CCCCC2)c2cccc(C(F)(F)F)c2n1 | 6.25 (≈ 2.43 µg/mL)
18 | COc1ccccc1NC(=O)NNc1cc(C(F)(F)F)nc2c(C(F)(F)F)cccc12 | 12.5 (≈ 5.55 µg/mL)
19 | FC(F)(F)c1cc(N/N=C/c2ccc3c(c2)CCO3)c2cccc(C(F)(F)F)c2n1 | 12.5 (≈ 5.32 µg/mL)
20 | FC(F)(F)c1cc(N/N=C/c2c[nH]cn2)c2cccc(C(F)(F)F)c2n1 | 6.25 (≈ 2.33 µg/mL)
21 | COc1ccc2[nH]cc(/C=N/Nc3cc(C(F)(F)F)nc4c(C(F)(F)F)cccc34)c2c1 | > 50
22 | FC(F)(F)c1cc(N/N=C/c2ccc3nonc3c2)c2cccc(C(F)(F)F)c2n1 | 12.5 (≈ 5.32 µg/mL)
23 | FC(F)(F)Oc1cccc(/C=N/Nc2cc(C(F)(F)F)nc3c(C(F)(F)F)cccc23)c1 | 12.5 (≈ 5.84 µg/mL)
24 | Cn1cccc1/C=N/Nc1cc(C(F)(F)F)nc2c(C(F)(F)F)cccc12 | 25 (≈ 9.66 µg/mL)
25 | CO[C@H]1/C=C/O[C@@]2(C)Oc3c(C)c(O)c4c(O)c(c(/C=N/N5CCN(C)CC5)c(O)c4c3C2=O)NC(=O)/C(C)=C\C=C\[C@H](C)[C@H](O)[C@@H](C)[C@@H](O)[C@@H](C)[C@H](OC(C)=O)[C@@H]1C [RIFAMPIN] | 25 (≈ 20.6 µg/mL)
26 | Cn1nnc2cc(/C=N/Nc3cc(C(F)(F)F)nc4c(C(F)(F)F)cccc34)ccc21 | 25 (≈ 11 µg/mL)
27 | FC(F)(F)c1cc(N/N=C/c2cccs2)c2cccc(C(F)(F)F)c2n1 | > 50
28 | CC(=O)OCc1ccc(/C=N/Nc2cc(C(F)(F)F)nc3c(C(F)(F)F)cccc23)o1 | > 50
29 | FC(F)(F)c1cc(N/N=C/c2cocc2Br)c2cccc(C(F)(F)F)c2n1 | > 50
